The values that follow come from patent US8524725B2, “Methods of using diaminopyrimidine as P2X3 and P2X⅔ receptor modulators for treatment of respiratory and gastrointestinal diseases” (Roche Palo Alto LLC, priority 2005, dated 2013).

Structures can show the parent of a compound that is named as a salt. Some results are limits rather than exact numbers.

Regarding `COc1cc(Cc2cnc(NCCO)nc2N)c(C(C)C)cc1OC` (as salt: HCl), the melting point is above 300 °C.

Turning to `COc1cc(C(C)C)c(Oc2cnc(N[C@H](C)CO)nc2N)cc1Cl` (as salt: hydrochloride), the melting point is 111.4 to 116.9 °C.

`COc1cc(C(C)C)c(Oc2cnc(N)nc2N)cc1Cl` (as salt: trifluoroacetic acid salt) gave a melting point of 135 to 138.5 °C.

Take `CNC(=O)OC[C@@H](C)Nc1ncc(Oc2cc(Cl)c(OC)cc2C(C)C)c(N)n1` (stereo in doubt): the melting point fell in the range of 63.5 to 69.4 °C.
